Key:
[1] = molecular target: human 5-HT2A serotonin receptor (Homo sapiens (Human), UniProt P28223); experiment: Radioligand binding ([3H]-ketanserin) to cloned human 5-HT2A receptor expressed in HEK-293 EBNA cells; details: membranes of transfected HEK-293 EBNA cells, 1.1 nM [3H]-ketanserin, 1 h at RT
How it was run: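 Membranes from transiently transfected HEK-293 EBNA cells incubated 1 h at RT with 1.1 nM [3H]-ketanserin (5-HT2A, 15 μg protein/well, Tris/MgCl2/EGTA pH 7.4) or 0.5 nM [3H]-spiperone (D3, 7.5 μg/well, Tris/NaCl/MgCl2/KCl/CaCl2 pH 7.4) plus test compound at 10 μM-0.1 nM. Nonspecific binding with 10 μM spiperone; filtration, Ki via Cheng-Prusoff.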

[2] = molecular target: human D3 dopamine receptor (Homo sapiens (Human), UniProt P35462); experiment: Radioligand binding ([3H]-spiperone) to cloned human D3 receptor expressed in HEK-293 EBNA cells; details: membranes of transfected HEK-293 EBNA cells, 0.5 nM [3H]-spiperone, 1 h at RT
How it was run: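 Membranes from HEK-293 EBNA cells transiently transfected with human D3 receptor, incubated 1 h at RT with ~0.5 nM [3H]-spiperone and ten compound concentrations (10 μM-0.1 nM); nonspecific binding with 10 μM spiperone. Filtered, scintillation counted; IC50 from four-parameter fit, Ki via Cheng-Prusoff using saturation Kd.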

human D3 dopamine receptor, sequence (P35462 whole entry): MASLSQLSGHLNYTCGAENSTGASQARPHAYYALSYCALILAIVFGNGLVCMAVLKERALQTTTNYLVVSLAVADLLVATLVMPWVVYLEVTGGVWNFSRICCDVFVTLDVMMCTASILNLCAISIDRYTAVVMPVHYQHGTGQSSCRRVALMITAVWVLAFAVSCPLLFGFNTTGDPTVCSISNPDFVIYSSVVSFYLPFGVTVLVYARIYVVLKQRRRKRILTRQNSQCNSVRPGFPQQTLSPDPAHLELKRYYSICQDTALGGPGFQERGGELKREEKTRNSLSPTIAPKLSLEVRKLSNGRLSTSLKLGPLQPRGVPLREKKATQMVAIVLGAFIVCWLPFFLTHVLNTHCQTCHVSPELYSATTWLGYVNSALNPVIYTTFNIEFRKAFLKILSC

SMILES	Ki [1] [nM]	Ki [2] [nM]
CC1(O)CCC(CC(=O)N[C@H]2CC[C@H](CCN3CCC(c4noc5cc(Cl)ccc45)CC3)CC2)CC1 (stereo partly drawn) [Example 45, N-trans(4-{2-[4-(6-Chloro-benzo[d]isoxazol-3-yl)-piperidin-1-yl]-ethyl}-cyclohexyl)-2-(4-hydroxy-4-methyl-cyclohexyl)-acetamide]	15	7
O=C(N[C@H]1CC[C@H](CCN2CCC(c3noc4ccc(F)cc34)CC2)CC1)c1ccc(N2CCOCC2)cc1 [Example 25, N-trans(4-{2-[4-(5-Fluoro-benzo[d]isoxazol-3-yl)-piperidin-1-yl]-ethyl}-cyclohexyl)-4-morpholin-4-yl-benzamide]	22.3	9.04

— patent US8829029B2, “Dual modulators of 5HT2A and D3 receptors” (Hoffmann-La Roche Inc., priority 2008, dated 2014)
